From ChEMBL document CHEMBL4507303, “Data for DCP probe TP-004” (2021)

Key:
[1] = target: Mitogen-activated protein kinase 4 (Homo sapiens) (UniProt P31152); conditions: Compound concentration 1000.0 nM
[2] = target: Leukocyte tyrosine kinase receptor (Homo sapiens) (UniProt P29376); conditions: Compound concentration 1000.0 nM
[3] = target: Activin receptor type-2B (Homo sapiens) (UniProt Q13705); conditions: Compound concentration 1000.0 nM
[4] = target: Muscarinic acetylcholine receptor M3 (Homo sapiens) (UniProt P20309); conditions: Compound concentration 10.0 uM
Muscarinic acetylcholine receptor M3 (Homo sapiens), sequence (P20309 whole entry, looked up, canonical isoform): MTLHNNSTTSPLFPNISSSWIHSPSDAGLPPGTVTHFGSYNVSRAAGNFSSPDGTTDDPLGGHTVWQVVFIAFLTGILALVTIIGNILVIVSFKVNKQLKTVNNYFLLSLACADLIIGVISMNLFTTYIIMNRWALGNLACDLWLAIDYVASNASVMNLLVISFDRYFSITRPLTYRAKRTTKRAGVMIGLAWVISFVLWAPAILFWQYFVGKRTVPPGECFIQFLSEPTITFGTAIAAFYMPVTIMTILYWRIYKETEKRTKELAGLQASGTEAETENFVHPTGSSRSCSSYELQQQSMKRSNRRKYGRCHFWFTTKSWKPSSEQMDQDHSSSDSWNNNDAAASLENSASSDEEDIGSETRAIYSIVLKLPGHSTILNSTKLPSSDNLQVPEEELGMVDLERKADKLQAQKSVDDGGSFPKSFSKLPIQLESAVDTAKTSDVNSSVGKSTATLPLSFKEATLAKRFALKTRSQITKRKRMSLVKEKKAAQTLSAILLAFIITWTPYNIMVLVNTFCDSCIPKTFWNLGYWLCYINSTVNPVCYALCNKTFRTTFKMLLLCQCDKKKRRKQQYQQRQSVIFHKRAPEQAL

[5] = system: Phosphatidylinositol 4,5-bisphosphate 3-kinase catalytic subunit alpha isoform (Homo sapiens), P42336 [E542K]; conditions: Compound concentration 1000.0 nM
[6] = target: Cyclin-dependent kinase 7 (Homo sapiens) (UniProt P50613); conditions: Compound concentration 1000.0 nM
[7] = target: Serine/threonine-protein kinase D3 (Homo sapiens) (UniProt O94806); conditions: Compound concentration 1000.0 nM
[8] = target: Tyrosine-protein kinase JAK1 (Homo sapiens) (UniProt P23458); conditions: Compound concentration 1000.0 nM
[9] = target: Serine/threonine-protein kinase PRP4 homolog (Homo sapiens) (UniProt Q13523); conditions: Compound concentration 1000.0 nM
Serine/threonine-protein kinase PRP4 homolog (Homo sapiens), sequence (Q13523 whole entry): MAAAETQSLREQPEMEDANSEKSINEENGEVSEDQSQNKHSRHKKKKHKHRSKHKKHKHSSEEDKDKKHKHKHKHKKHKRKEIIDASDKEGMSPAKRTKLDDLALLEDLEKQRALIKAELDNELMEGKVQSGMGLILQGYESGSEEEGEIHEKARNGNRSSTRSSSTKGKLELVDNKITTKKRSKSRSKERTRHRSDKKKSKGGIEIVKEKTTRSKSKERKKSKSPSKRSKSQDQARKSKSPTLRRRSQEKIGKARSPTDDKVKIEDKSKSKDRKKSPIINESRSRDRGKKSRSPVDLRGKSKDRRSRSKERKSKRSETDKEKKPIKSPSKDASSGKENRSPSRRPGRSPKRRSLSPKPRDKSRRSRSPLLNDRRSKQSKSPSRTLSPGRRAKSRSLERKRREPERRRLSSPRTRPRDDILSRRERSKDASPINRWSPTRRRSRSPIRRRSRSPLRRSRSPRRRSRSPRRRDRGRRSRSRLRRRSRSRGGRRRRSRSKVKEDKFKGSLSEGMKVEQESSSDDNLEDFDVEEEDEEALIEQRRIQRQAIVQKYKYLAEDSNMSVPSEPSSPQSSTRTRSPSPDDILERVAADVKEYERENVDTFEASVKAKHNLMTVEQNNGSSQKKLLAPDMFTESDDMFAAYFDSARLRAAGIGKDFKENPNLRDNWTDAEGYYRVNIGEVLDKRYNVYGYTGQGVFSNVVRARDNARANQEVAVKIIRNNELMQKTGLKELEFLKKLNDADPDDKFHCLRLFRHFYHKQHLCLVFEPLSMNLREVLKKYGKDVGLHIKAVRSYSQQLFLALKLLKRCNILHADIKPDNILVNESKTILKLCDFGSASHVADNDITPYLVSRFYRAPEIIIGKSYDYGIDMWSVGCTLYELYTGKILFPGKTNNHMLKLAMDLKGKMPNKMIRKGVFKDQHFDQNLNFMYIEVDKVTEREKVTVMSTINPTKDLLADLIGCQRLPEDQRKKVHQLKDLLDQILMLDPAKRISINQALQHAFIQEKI

[10] = target: Serine/threonine-protein kinase 38 (Homo sapiens) (UniProt Q15208); conditions: Compound concentration 1000.0 nM
Serine/threonine-protein kinase 38 (Homo sapiens), sequence (Q15208 2-465 limits assumed): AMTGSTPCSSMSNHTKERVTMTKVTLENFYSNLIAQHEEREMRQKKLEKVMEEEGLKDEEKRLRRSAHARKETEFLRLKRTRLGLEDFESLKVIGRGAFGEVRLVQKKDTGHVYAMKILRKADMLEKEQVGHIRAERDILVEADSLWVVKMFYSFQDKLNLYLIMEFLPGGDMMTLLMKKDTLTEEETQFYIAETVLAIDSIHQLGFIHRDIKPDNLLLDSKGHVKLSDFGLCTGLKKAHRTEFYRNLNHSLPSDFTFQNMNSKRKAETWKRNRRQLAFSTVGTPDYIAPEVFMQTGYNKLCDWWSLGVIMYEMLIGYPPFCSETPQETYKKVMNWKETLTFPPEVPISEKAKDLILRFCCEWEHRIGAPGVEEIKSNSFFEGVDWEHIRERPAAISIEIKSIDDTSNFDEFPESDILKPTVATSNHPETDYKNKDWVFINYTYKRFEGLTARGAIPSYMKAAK

[11] = target: Ephrin type-B receptor 1 (Homo sapiens) (UniProt P54762); conditions: Compound concentration 1000.0 nM
[12] = system: Tyrosine-protein kinase ABL1 (Homo sapiens), P00519 [F317I]; conditions: Compound concentration 1000.0 nM
Tyrosine-protein kinase ABL1 (Homo sapiens), P00519 [F317I], sequence (P00519 whole entry F317I): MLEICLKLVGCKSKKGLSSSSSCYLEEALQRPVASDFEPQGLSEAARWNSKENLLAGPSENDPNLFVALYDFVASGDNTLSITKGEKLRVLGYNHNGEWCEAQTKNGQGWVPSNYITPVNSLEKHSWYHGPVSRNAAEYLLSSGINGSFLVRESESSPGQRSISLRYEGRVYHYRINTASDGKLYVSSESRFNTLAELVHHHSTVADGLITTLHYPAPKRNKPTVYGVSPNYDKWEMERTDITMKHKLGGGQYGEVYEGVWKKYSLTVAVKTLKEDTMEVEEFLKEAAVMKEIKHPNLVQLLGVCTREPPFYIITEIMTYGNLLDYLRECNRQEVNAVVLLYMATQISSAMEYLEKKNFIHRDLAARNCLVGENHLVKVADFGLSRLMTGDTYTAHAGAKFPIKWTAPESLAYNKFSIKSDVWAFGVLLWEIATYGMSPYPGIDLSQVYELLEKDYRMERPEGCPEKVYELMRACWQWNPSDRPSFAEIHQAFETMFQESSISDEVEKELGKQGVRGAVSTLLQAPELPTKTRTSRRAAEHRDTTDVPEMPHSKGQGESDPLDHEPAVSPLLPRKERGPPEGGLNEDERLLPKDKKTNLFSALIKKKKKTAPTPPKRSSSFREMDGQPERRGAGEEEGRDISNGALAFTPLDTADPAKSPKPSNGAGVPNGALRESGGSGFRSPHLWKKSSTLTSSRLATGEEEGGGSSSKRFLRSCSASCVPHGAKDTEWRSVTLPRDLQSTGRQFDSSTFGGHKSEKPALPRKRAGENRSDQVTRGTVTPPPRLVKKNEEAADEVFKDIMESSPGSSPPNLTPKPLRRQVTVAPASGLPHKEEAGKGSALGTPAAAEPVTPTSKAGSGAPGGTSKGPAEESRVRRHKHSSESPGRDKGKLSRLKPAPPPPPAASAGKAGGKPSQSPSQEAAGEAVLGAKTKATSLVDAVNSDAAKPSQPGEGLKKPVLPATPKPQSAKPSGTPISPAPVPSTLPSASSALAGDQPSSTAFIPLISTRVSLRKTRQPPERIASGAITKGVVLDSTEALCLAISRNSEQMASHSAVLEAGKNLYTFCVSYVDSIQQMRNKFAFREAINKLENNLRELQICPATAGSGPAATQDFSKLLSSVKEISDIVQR

[13] = target: ALK tyrosine kinase receptor (Homo sapiens) (UniProt Q9UM73); conditions: Compound concentration 1000.0 nM
ALK tyrosine kinase receptor (Homo sapiens), sequence (Q9UM73 19-1620 limits assumed): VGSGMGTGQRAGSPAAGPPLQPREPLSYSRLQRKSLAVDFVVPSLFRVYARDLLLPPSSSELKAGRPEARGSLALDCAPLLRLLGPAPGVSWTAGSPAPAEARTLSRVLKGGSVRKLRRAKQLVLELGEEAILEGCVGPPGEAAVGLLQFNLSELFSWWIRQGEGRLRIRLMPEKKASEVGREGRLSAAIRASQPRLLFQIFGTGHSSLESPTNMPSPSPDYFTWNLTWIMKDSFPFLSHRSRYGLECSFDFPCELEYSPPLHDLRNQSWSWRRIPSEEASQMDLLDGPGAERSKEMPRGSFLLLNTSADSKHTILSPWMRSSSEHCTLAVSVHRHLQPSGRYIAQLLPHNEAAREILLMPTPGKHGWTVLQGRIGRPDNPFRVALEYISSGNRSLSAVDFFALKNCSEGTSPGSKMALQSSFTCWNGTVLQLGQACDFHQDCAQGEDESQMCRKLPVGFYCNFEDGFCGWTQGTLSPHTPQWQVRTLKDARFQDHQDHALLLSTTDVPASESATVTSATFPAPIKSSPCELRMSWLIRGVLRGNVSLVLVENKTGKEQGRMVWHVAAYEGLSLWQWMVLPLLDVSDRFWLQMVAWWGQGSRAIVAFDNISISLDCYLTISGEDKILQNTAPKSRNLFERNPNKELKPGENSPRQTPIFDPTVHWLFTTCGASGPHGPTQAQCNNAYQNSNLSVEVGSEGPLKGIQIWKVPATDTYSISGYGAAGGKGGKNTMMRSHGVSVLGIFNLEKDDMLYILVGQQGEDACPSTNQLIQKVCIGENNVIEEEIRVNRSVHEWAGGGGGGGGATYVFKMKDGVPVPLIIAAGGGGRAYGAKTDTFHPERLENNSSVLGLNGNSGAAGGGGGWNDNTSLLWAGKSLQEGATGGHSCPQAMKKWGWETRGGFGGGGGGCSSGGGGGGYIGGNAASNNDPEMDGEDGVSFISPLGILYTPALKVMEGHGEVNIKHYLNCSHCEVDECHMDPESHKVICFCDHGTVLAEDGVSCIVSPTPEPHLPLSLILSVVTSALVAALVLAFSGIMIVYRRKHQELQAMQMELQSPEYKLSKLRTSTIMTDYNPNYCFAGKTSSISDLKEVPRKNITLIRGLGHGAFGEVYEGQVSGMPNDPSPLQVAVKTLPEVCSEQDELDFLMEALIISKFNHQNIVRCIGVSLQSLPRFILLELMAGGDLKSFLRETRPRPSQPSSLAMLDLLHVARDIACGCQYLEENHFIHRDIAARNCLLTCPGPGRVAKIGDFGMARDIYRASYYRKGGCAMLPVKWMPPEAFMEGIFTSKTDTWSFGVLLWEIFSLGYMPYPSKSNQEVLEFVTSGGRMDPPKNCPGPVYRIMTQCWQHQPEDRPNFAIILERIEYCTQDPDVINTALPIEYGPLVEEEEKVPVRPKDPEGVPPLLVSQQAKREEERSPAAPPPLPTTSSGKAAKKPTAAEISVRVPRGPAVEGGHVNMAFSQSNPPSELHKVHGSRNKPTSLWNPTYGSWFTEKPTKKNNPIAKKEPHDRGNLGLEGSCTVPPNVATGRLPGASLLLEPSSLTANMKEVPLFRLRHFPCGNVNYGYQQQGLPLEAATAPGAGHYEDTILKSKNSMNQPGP

[14] = target: Serine/threonine-protein kinase D2 (Homo sapiens) (UniProt Q9BZL6); conditions: Compound concentration 1000.0 nM
[15] = target: Serine/threonine-protein kinase WNK4 (Homo sapiens) (UniProt Q96J92); conditions: Compound concentration 1000.0 nM
[16] = target: Serine/threonine-protein kinase 10 (Homo sapiens) (UniProt O94804); conditions: Compound concentration 1000.0 nM
[17] = target: Mitogen-activated protein kinase kinase kinase 12 (Homo sapiens) (UniProt Q12852); conditions: Compound concentration 1000.0 nM
[18] = target: Dual specificity mitogen-activated protein kinase kinase 1 (Homo sapiens) (UniProt Q02750); conditions: Compound concentration 1000.0 nM
[19] = target: NT-3 growth factor receptor (Homo sapiens) (UniProt Q16288); conditions: Compound concentration 1000.0 nM
[20] = system: Receptor-type tyrosine-protein kinase FLT3 (Homo sapiens), P36888 [D835Y]; conditions: Compound concentration 1000.0 nM

Cc1nc(N2CC[C@@H](O)C2)ncc1-c1cc(C(F)(F)F)cc2[nH]ncc12 [TP-004]
inactive: residual activity [1] 90% | residual activity [2] 87% | residual activity [3] 79% | inhibition [4] -2.13% | residual activity [5] 52% | residual activity [6] 68% | residual activity [7] 100% | residual activity [8] 78% | residual activity [9] 100% | residual activity [10] 95% | residual activity [11] 73% | residual activity [12] 73% | residual activity [13] 81% | residual activity [14] 79% | residual activity [15] 95% | residual activity [16] 100% | residual activity [17] 99% | residual activity [18] 83% | residual activity [19] 66% | residual activity [20] 80%
